#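 A five-concentration, 48-hour dose response in 96-well plates underlies each endpoint, interpolated linearly between surrounding concentrations. GI50 is the concentration that inhibits growth by half. Definition used: TGI = concentration required for complete inhibition of growth.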
# Assays:
# Experiment in all cases: DTP human tumour cell line panel, 48 h
# NCI-H522 lung = system: NCI-H522 lung
# A498 renal = system: A498 renal
# HCT-116 colon = system: HCT-116 colon
# DU-145 prostate = system: DU-145 prostate
# SK-MEL-28 melanoma = system: SK-MEL-28 melanoma
# HOP-62 NSCLC = system: HOP-62 NSCLC
# HCT-15 colon = system: HCT-15 colon
# ACHN renal = system: ACHN renal
# MALME-3M melanoma = system: MALME-3M melanoma
# 786-0 renal = system: 786-0 renal
# T-47D breast = system: T-47D breast
# UACC-62 melanoma = system: UACC-62 melanoma
# LOX IMVI melanoma = system: LOX IMVI melanoma
# IGROV1 ovarian = system: IGROV1 ovarian
# NCI/ADR-RES ovarian = system: NCI/ADR-RES ovarian
# SNB-19 CNS = system: SNB-19 CNS
# TK-10 renal = system: TK-10 renal
# MOLT-4 leukemia = system: MOLT-4 leukemia
# HL-60(TB) leukemia = system: HL-60(TB) leukemia
# OVCAR-4 ovarian = system: OVCAR-4 ovarian
# OVCAR-3 ovarian = system: OVCAR-3 ovarian
# SK-MEL-5 melanoma = system: SK-MEL-5 melanoma
# SW-620 colon = system: SW-620 colon
# HT29 colon = system: HT29 colon
# HCC-2998 colon = system: HCC-2998 colon
# A549 NSCLC = system: A549 NSCLC
# MCF7 breast = system: MCF7 breast
# EKVX NSCLC = system: EKVX NSCLC
# HS 578T breast = system: HS 578T breast
# UACC-257 melanoma = system: UACC-257 melanoma
# MDA-MB-231 breast = system: MDA-MB-231 breast
# K-562 leukemia = system: K-562 leukemia
# SK-MEL-2 melanoma = system: SK-MEL-2 melanoma
# SK-OV-3 ovarian = system: SK-OV-3 ovarian
# SR leukemia = system: SR leukemia
# UO-31 renal = system: UO-31 renal
# SF-295 CNS = system: SF-295 CNS
# COLO 205 colon = system: COLO 205 colon
# MDA-MB-435 = system: MDA-MB-435
# CAKI-1 renal = system: CAKI-1 renal
# NCI-H226 lung = system: NCI-H226 lung
# OVCAR-8 ovarian = system: OVCAR-8 ovarian
# KM12 colon = system: KM12 colon
# SNB-75 CNS = system: SNB-75 CNS
# SF-539 CNS = system: SF-539 CNS
# NCI-H460 lung = system: NCI-H460 lung
# SN12C renal = system: SN12C renal
# M14 melanoma = system: M14 melanoma
# CCRF-CEM leukemia = system: CCRF-CEM leukemia
# SF-268 CNS = system: SF-268 CNS
# NCI-H23 lung = system: NCI-H23 lung
# OVCAR-5 ovarian = system: OVCAR-5 ovarian
# BT-549 breast = system: BT-549 breast
# RPMI-8226 leukemia = system: RPMI-8226 leukemia
# U251 CNS = system: U251 CNS
# PC-3 prostate = system: PC-3 prostate
# HOP-92 NSCLC = system: HOP-92 NSCLC
compound,measurement,setting,value
COc1ccc(-c2cc(-c3cc(OC)c(OC)c(OC)c3)c(C#N)c(N3CCOCC3)n2)cc1O,GI50,NCI-H522 lung,5.14 µM
same,TGI,NCI-H522 lung,> 53.6 µM
same,GI50,A498 renal,> 21.4 µM
same,TGI,A498 renal,> 77.9 µM
same,GI50,HCT-116 colon,3.36 µM
same,TGI,HCT-116 colon,> 83.1 µM
same,GI50,DU-145 prostate,5.3 µM
same,TGI,DU-145 prostate,> 100 µM
same,GI50,SK-MEL-28 melanoma,> 21.8 µM
same,TGI,SK-MEL-28 melanoma,> 94.8 µM
same,GI50,HOP-62 NSCLC,33.2 µM
same,TGI,HOP-62 NSCLC,> 100 µM
same,GI50,HCT-15 colon,1.89 µM
same,TGI,HCT-15 colon,> 60.3 µM
same,GI50,ACHN renal,3.49 µM
same,TGI,ACHN renal,> 100 µM
same,GI50,MALME-3M melanoma,> 100 µM
same,TGI,MALME-3M melanoma,> 100 µM
same,GI50,786-0 renal,51.2 µM
same,TGI,786-0 renal,> 100 µM
same,GI50,T-47D breast,25.4 µM
same,TGI,T-47D breast,> 100 µM
same,GI50,UACC-62 melanoma,60.2 µM
same,TGI,UACC-62 melanoma,> 100 µM
same,GI50,LOX IMVI melanoma,0.238 µM
same,TGI,LOX IMVI melanoma,11.7 µM
same,GI50,IGROV1 ovarian,19 µM
same,TGI,IGROV1 ovarian,> 100 µM
same,GI50,NCI/ADR-RES ovarian,1.85 µM
same,TGI,NCI/ADR-RES ovarian,> 100 µM
same,GI50,SNB-19 CNS,5.33 µM
same,TGI,SNB-19 CNS,> 100 µM
same,GI50,TK-10 renal,> 59.8 µM
same,TGI,TK-10 renal,> 100 µM
same,GI50,MOLT-4 leukemia,4.36 µM
same,TGI,MOLT-4 leukemia,> 100 µM
same,GI50,HL-60(TB) leukemia,1.34 µM
same,TGI,HL-60(TB) leukemia,3.87 µM
same,GI50,OVCAR-4 ovarian,47.9 µM
same,TGI,OVCAR-4 ovarian,> 100 µM
same,GI50,OVCAR-3 ovarian,2.81 µM
same,TGI,OVCAR-3 ovarian,8.33 µM
same,GI50,SK-MEL-5 melanoma,3.3 µM
same,TGI,SK-MEL-5 melanoma,> 75.2 µM
same,GI50,SW-620 colon,3.87 µM
same,TGI,SW-620 colon,> 100 µM
same,GI50,HT29 colon,10.3 µM
same,TGI,HT29 colon,> 100 µM
same,GI50,HCC-2998 colon,29.2 µM
same,TGI,HCC-2998 colon,> 100 µM
same,GI50,A549 NSCLC,4.71 µM
same,TGI,A549 NSCLC,> 100 µM
same,GI50,MCF7 breast,3.2 µM
same,TGI,MCF7 breast,> 100 µM
same,GI50,EKVX NSCLC,8.95 µM
same,TGI,EKVX NSCLC,> 100 µM
same,GI50,HS 578T breast,2.45 µM
same,TGI,HS 578T breast,> 28.3 µM
same,GI50,UACC-257 melanoma,38.4 µM
same,TGI,UACC-257 melanoma,> 100 µM
same,GI50,MDA-MB-231 breast,2.41 µM
same,TGI,MDA-MB-231 breast,> 93.3 µM
same,GI50,K-562 leukemia,2.47 µM
same,TGI,K-562 leukemia,> 24.1 µM
same,GI50,SK-MEL-2 melanoma,13.5 µM
same,TGI,SK-MEL-2 melanoma,> 100 µM
same,GI50,SK-OV-3 ovarian,14.8 µM
same,TGI,SK-OV-3 ovarian,> 100 µM
same,GI50,SR leukemia,1.1 µM
same,TGI,SR leukemia,> 100 µM
same,GI50,UO-31 renal,11.1 µM
same,TGI,UO-31 renal,> 100 µM
same,GI50,SF-295 CNS,6.38 µM
same,TGI,SF-295 CNS,> 73.8 µM
same,GI50,COLO 205 colon,21.5 µM
same,TGI,COLO 205 colon,> 100 µM
same,GI50,MDA-MB-435,3.28 µM
same,TGI,MDA-MB-435,> 43.7 µM
same,GI50,CAKI-1 renal,0.866 µM
same,TGI,CAKI-1 renal,> 100 µM
same,GI50,NCI-H226 lung,> 100 µM
same,TGI,NCI-H226 lung,> 100 µM
same,GI50,OVCAR-8 ovarian,6.11 µM
same,TGI,OVCAR-8 ovarian,> 100 µM
same,GI50,KM12 colon,3.06 µM
same,TGI,KM12 colon,> 100 µM
same,GI50,SNB-75 CNS,2.2 µM
same,TGI,SNB-75 CNS,> 25.6 µM
same,GI50,SF-539 CNS,2.52 µM
same,TGI,SF-539 CNS,12.5 µM
same,GI50,NCI-H460 lung,1.07 µM
same,TGI,NCI-H460 lung,> 96.1 µM
same,GI50,SN12C renal,4.69 µM
same,TGI,SN12C renal,> 100 µM
same,GI50,M14 melanoma,10.1 µM
same,TGI,M14 melanoma,> 100 µM
same,GI50,CCRF-CEM leukemia,6.46 µM
same,TGI,CCRF-CEM leukemia,> 77.9 µM
same,GI50,SF-268 CNS,6 µM
same,TGI,SF-268 CNS,> 100 µM
same,GI50,NCI-H23 lung,26.7 µM
same,TGI,NCI-H23 lung,> 100 µM
same,TGI,OVCAR-5 ovarian,> 100 µM
same,GI50,BT-549 breast,19.9 µM
same,TGI,BT-549 breast,> 100 µM
same,GI50,RPMI-8226 leukemia,0.514 µM
same,TGI,RPMI-8226 leukemia,3.6 µM
same,GI50,U251 CNS,3.4 µM
same,TGI,U251 CNS,> 94.1 µM
same,GI50,PC-3 prostate,3.6 µM
same,TGI,PC-3 prostate,> 100 µM
same,GI50,HOP-92 NSCLC,5.67 µM
same,TGI,HOP-92 NSCLC,> 100 µM

# — PubChem BioAssay (NCI)
